Measurements reported in ChEMBL document CHEMBL1131404, “A new strong inhibitor of beta-mannosidase” (Bioorg Med Chem Lett, 1998).
pKi: −log10 of the molar value.

Assays:
[1] = The compound was tested for its competitive inhibitory activity against Alpha-mannosidase
[2] = The compound was tested for its inhibitory activity against alpha-mannosidase using p-nitrophenylmannopyranoside as substrate

Row | SMILES | pKi [1] | Km [2] [µM]
1 | O=C(Nc1ccccc1)O/N=C1\OC(CO)C(O)C(O)C1O (centres undefined) | 4.10 | 1200
2 | O=[N+]([O-])c1ccc(O/N=C2\OC(CO)C(O)C(O)C2O)c([N+](=O)[O-])c1 (centres undefined) | 4.30 | 570
